Measured values from PubChem BioAssay (NCI).
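Where inhibition never reached the appropriate level, the endpoint shown equals the highest concentration tested. Otherwise, values were interpolated linearly from a five-concentration, 48-hour dose response in 96-well plates. GI50 marks 50% less growth. At the TGI there is no net growth.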

Legend:
Test in all cases: DTP human tumour cell line panel, 48 h
786-0 renal = system: 786-0 renal
A498 renal = system: A498 renal
A549 NSCLC = system: A549 NSCLC
ACHN renal = system: ACHN renal
BT-549 breast = system: BT-549 breast
CAKI-1 renal = system: CAKI-1 renal
CCRF-CEM leukemia = system: CCRF-CEM leukemia
COLO 205 colon = system: COLO 205 colon
DU-145 prostate = system: DU-145 prostate
EKVX NSCLC = system: EKVX NSCLC
HCC-2998 colon = system: HCC-2998 colon
HCT-116 colon = system: HCT-116 colon
HCT-15 colon = system: HCT-15 colon
HL-60(TB) leukemia = system: HL-60(TB) leukemia
HOP-62 NSCLC = system: HOP-62 NSCLC
HOP-92 NSCLC = system: HOP-92 NSCLC
HS 578T breast = system: HS 578T breast
HT29 colon = system: HT29 colon
IGROV1 ovarian = system: IGROV1 ovarian
K-562 leukemia = system: K-562 leukemia
KM12 colon = system: KM12 colon
LOX IMVI melanoma = system: LOX IMVI melanoma
M14 melanoma = system: M14 melanoma
MALME-3M melanoma = system: MALME-3M melanoma
MCF7 breast = system: MCF7 breast
MDA-MB-231 breast = system: MDA-MB-231 breast
MDA-MB-435 = system: MDA-MB-435
MDA-MB-468 breast = system: MDA-MB-468 breast
MOLT-4 leukemia = system: MOLT-4 leukemia
NCI-H226 lung = system: NCI-H226 lung
NCI-H23 lung = system: NCI-H23 lung
NCI-H460 lung = system: NCI-H460 lung
NCI-H522 lung = system: NCI-H522 lung
NCI/ADR-RES ovarian = system: NCI/ADR-RES ovarian
OVCAR-3 ovarian = system: OVCAR-3 ovarian
OVCAR-4 ovarian = system: OVCAR-4 ovarian
OVCAR-5 ovarian = system: OVCAR-5 ovarian
OVCAR-8 ovarian = system: OVCAR-8 ovarian
PC-3 prostate = system: PC-3 prostate
RPMI-8226 leukemia = system: RPMI-8226 leukemia
RXF 393 renal = system: RXF 393 renal
SF-268 CNS = system: SF-268 CNS
SF-295 CNS = system: SF-295 CNS
SF-539 CNS = system: SF-539 CNS
SK-MEL-2 melanoma = system: SK-MEL-2 melanoma
SK-MEL-28 melanoma = system: SK-MEL-28 melanoma
SK-MEL-5 melanoma = system: SK-MEL-5 melanoma
SK-OV-3 ovarian = system: SK-OV-3 ovarian
SN12C renal = system: SN12C renal
SNB-19 CNS = system: SNB-19 CNS
SNB-75 CNS = system: SNB-75 CNS
SR leukemia = system: SR leukemia
SW-620 colon = system: SW-620 colon
T-47D breast = system: T-47D breast
TK-10 renal = system: TK-10 renal
U251 CNS = system: U251 CNS
UACC-257 melanoma = system: UACC-257 melanoma
UACC-62 melanoma = system: UACC-62 melanoma
UO-31 renal = system: UO-31 renal

`COc1ccc(-c2nnc3c(/C=C/c4ccc(Br)cc4)nc4ccccc4n23)cc1` showed a GI50 (786-0 renal) of 1.54 µM, a TGI (786-0 renal) of 3.81 µM and a GI50 (A498 renal) of 22.8 µM. The TGI (A498 renal) was 91.4 µM, the GI50 (A549 NSCLC) was 12 µM and the TGI (A549 NSCLC) was 24.4 µM. The GI50 (ACHN renal) was 2.55 µM, the TGI (ACHN renal) was 9.06 µM and the GI50 (BT-549 breast) was 2.37 µM. The TGI (BT-549 breast) was 15.3 µM, the GI50 (CAKI-1 renal) was 11.3 µM and the TGI (CAKI-1 renal) was 23.3 µM. For the same molecule, the GI50 (CCRF-CEM leukemia) was 1.39 µM, the TGI (CCRF-CEM leukemia) was 4.9 µM and the GI50 (COLO 205 colon) was 4.19 µM. For the same molecule, the TGI (COLO 205 colon) was 15.1 µM, the GI50 (DU-145 prostate) was 5.24 µM and the TGI (DU-145 prostate) was 17.7 µM. For the same molecule, the GI50 (EKVX NSCLC) was 12.1 µM, the TGI (EKVX NSCLC) was 26.1 µM and the GI50 (HCC-2998 colon) was 12.1 µM. For the same molecule, the TGI (HCC-2998 colon) was 24.5 µM, the GI50 (HCT-116 colon) was 1.47 µM and the TGI (HCT-116 colon) was 3.2 µM. The GI50 (HCT-15 colon) was 1.47 µM, the TGI (HCT-15 colon) was 3.25 µM and the GI50 (HL-60(TB) leukemia) was 3.43 µM. For the same molecule, the TGI (HL-60(TB) leukemia) was 16.8 µM, the GI50 (HOP-62 NSCLC) was 15.5 µM and the TGI (HOP-62 NSCLC) was 32 µM. It also gave a GI50 (HOP-92 NSCLC) of 1.14 µM, a TGI (HOP-92 NSCLC) of 7.29 µM and a GI50 (HS 578T breast) of 16.7 µM. For the same molecule, the TGI (HS 578T breast) was 57 µM, the GI50 (HT29 colon) was 2.56 µM and the TGI (HT29 colon) was 9.29 µM. It also gave a GI50 (IGROV1 ovarian) of 10.7 µM, a TGI (IGROV1 ovarian) of 22.6 µM and a GI50 (K-562 leukemia) of 0.431 µM. It also gave a TGI (K-562 leukemia) of 13.1 µM, a GI50 (KM12 colon) of 12.6 µM and a TGI (KM12 colon) of 25.1 µM. For the same molecule, the GI50 (LOX IMVI melanoma) was 0.883 µM, the TGI (LOX IMVI melanoma) was 2.11 µM and the GI50 (M14 melanoma) was 2.41 µM. It also gave a TGI (M14 melanoma) of 10.2 µM, a GI50 (MALME-3M melanoma) of 1.3 µM and a TGI (MALME-3M melanoma) of 2.72 µM. The GI50 (MCF7 breast) was 2.8 µM, the TGI (MCF7 breast) was 14.9 µM and the GI50 (MDA-MB-231 breast) was 4.82 µM. The TGI (MDA-MB-231 breast) was 17.5 µM, the GI50 (MDA-MB-435) was 11.7 µM and the TGI (MDA-MB-435) was 23.9 µM. The GI50 (MDA-MB-468 breast) was 2.08 µM, the TGI (MDA-MB-468 breast) was 8.39 µM and the GI50 (MOLT-4 leukemia) was 2.7 µM. For the same molecule, the TGI (MOLT-4 leukemia) was 12.1 µM, the GI50 (NCI-H226 lung) was 1.68 µM and the TGI (NCI-H226 lung) was 4.5 µM. For the same molecule, the GI50 (NCI-H23 lung) was 9.39 µM, the TGI (NCI-H23 lung) was 21.3 µM and the GI50 (NCI-H460 lung) was 11.2 µM. For the same molecule, the TGI (NCI-H460 lung) was 23.2 µM, the GI50 (NCI-H522 lung) was 0.156 µM and the TGI (NCI-H522 lung) was 0.301 µM. For the same molecule, the GI50 (NCI/ADR-RES ovarian) was 10.3 µM, the TGI (NCI/ADR-RES ovarian) was 25.9 µM and the GI50 (OVCAR-3 ovarian) was 3.43 µM. It also gave a TGI (OVCAR-3 ovarian) of 14 µM, a GI50 (OVCAR-4 ovarian) of 3.96 µM and a TGI (OVCAR-4 ovarian) of 16.4 µM. The GI50 (OVCAR-5 ovarian) was 3.97 µM, the TGI (OVCAR-5 ovarian) was 16 µM and the GI50 (OVCAR-8 ovarian) was 10.4 µM. It also gave a TGI (OVCAR-8 ovarian) of 22.1 µM, a GI50 (PC-3 prostate) of 11.4 µM and a TGI (PC-3 prostate) of 23.5 µM. For the same molecule, the GI50 (RPMI-8226 leukemia) was 4.11 µM, the TGI (RPMI-8226 leukemia) was 18.4 µM and the GI50 (RXF 393 renal) was 1.24 µM. It also gave a TGI (RXF 393 renal) of 2.53 µM, a GI50 (SF-268 CNS) of 14.4 µM and a TGI (SF-268 CNS) of 34.7 µM. The GI50 (SF-295 CNS) was 16 µM, the TGI (SF-295 CNS) was 33.1 µM and the GI50 (SF-539 CNS) was 2.45 µM. It also gave a TGI (SF-539 CNS) of 6.91 µM, a GI50 (SK-MEL-2 melanoma) of 10.9 µM and a TGI (SK-MEL-2 melanoma) of 22.8 µM. For the same molecule, the GI50 (SK-MEL-28 melanoma) was 8.85 µM, the TGI (SK-MEL-28 melanoma) was 21.1 µM and the GI50 (SK-MEL-5 melanoma) was 10.8 µM. For the same molecule, the TGI (SK-MEL-5 melanoma) was 22.7 µM, the GI50 (SK-OV-3 ovarian) was 21.7 µM and the TGI (SK-OV-3 ovarian) was 64 µM. It also gave a GI50 (SN12C renal) of 2.24 µM, a TGI (SN12C renal) of 8.9 µM and a GI50 (SNB-19 CNS) of 13.7 µM. The TGI (SNB-19 CNS) was 26.8 µM, the GI50 (SNB-75 CNS) was 16 µM and the TGI (SNB-75 CNS) was 34.1 µM. For the same molecule, the GI50 (SR leukemia) was 1.04 µM, the TGI (SR leukemia) was 3.94 µM and the GI50 (SW-620 colon) was 0.728 µM. It also gave a TGI (SW-620 colon) of 2.24 µM, a GI50 (T-47D breast) of 10.5 µM and a TGI (T-47D breast) of 25.5 µM. For the same molecule, the GI50 (TK-10 renal) was 13.5 µM, the TGI (TK-10 renal) was 26.3 µM and the GI50 (U251 CNS) was 6.97 µM. For the same molecule, the TGI (U251 CNS) was 19.7 µM, the GI50 (UACC-257 melanoma) was 13.1 µM and the TGI (UACC-257 melanoma) was 25.8 µM. The GI50 (UACC-62 melanoma) was 5.61 µM, the TGI (UACC-62 melanoma) was 19.5 µM and the GI50 (UO-31 renal) was 2.93 µM. The TGI (UO-31 renal) was 16.4 µM.
